Data reported in patent US20110144578A1, “HYDROPHOBIC THERAPUEUTIC AGENT AND SOLID EMULSIFIER COATING FOR DRUG COATED BALLOON” (priority 2009, published 2011).
≈ marks a conversion by molar mass, not a printed value.

Experiments:
physchem = conditions: water
Source text: Using the Stokes-Einstein equation as a simple model, diffusion coefficients are approximately proportional to the molecular weight of a species raised to the −⅓ power. Thus, individual molecules or micelles, which are low in molecular weight, tend to diffuse much faster than microspheres or nanoparticles, which are much higher in molecular weight.

[1] = Solubility enhancement screening in 5% (w/w) excipient solutions in phosphate buffered saline, HPLC of supernatant; format: physicochemical; conditions: aqueous buffer, thermodynamic from solid, 37° C., n = 3, read-out: Zotarolimus Solubility
Method: Emulsifier candidates can be screened by measuring the degree to which they can enhance the solubility of the therapeutic agent. One way to accomplish this is to make 5% (w/w) solutions of the emulsifiers of interest in a phosphate buffered saline solution. An excess amount of drug is added to the solution and incubated with stirring at 37° C. After centrifugation to precipitate all solids, the supernatant is assayed by HPLC for the drug concentration.

solubility (physchem): 0.5 µg/mL (≈ 0.517 µM)
solubility [1]: 0.53 µg/mL
SMILES: CO[C@H]1C[C@@H]2CC[C@@H](C)[C@@](O)(O2)C(=O)C(=O)N2CCCC[C@H]2C(=O)O[C@H]([C@H](C)C[C@@H]2CC[C@H](n3cnnn3)[C@H](OC)C2)CC(=O)[C@H](C)/C=C(\C)[C@@H](O)[C@@H](OC)C(=O)[C@H](C)C[C@H](C)/C=C/C=C/C=C/1C [Zotarolimus, zotarolimus]
